Laboratory results published in US7445892B2, “Method of testing anticancer agent-sensitivity of tumor cells” (Eisai Co., Ltd., priority 2000, dated 2008).

System: HCT116-C9
Assay: Gene expression analysis using DNA microarray (GeneChip Hu6800)
Type: cell-based, human
Method: All cells were cultured in RPMI-1640 medium supplemented with 10% of fetal bovine serum, 100 units/ml of penicillin and 100 μg/ml of streptomycin at 37° C. under 5% CO2.
E7070, or ER-35748 or ER-68487 represented by the structural formula shown below was added to the media of an E7070-susceptible strain HCT116-C9 and an E7070-resistant strain HCT116-C9-C1 at a concentration of 8 μM and the cells were cultured. Then, cells were recovered after 0, 3, 6 and 12 hours. Further, the cells were also cultured for 12 hours without adding the drug and recovered.
Total RNA was extracted from these cells and subjected to the subsequent analyses. The RNA extracted from the cells cultured for 12 hours with the drug and the RNA from extracted the cells cultured for 12 hours without the drug were used for the gene expression analysis using a DNA microarray described in Example 2. HCT116-C9 was a substrain isolated from HCT116 derived from human colon cancer (American Type Culture Collection, Manassas, Va., U.S.A.), and HCT116-C9-C1 was an E7070-resistant substrain obtained by culturing this HCT116-C9 in the presence of E7070 with gradually increasing the E7070 concentration.
Total RNA was extracted from the recovered cells by using TRIZOL Reagent (Life Technologies Oriental) according to the attached operation manual.
Each RNA obtained in Example 1 was dissolved in 100 μl of sterilized water treated with diethyl pyrocarbonate (DEPC) and further purified by using RNeasy Column (QIAGEN), and double-stranded cDNA was synthesized by using SuperScript Choice System (Life Technologies Oriental) and a T7-d(T)24 primer.
First, to 10 μg of RNA, 5 μM T7-d(T)24 primer, 1×First strand buffer, 10 mM DTT, 500 μM dNTP mix and 20 units/μl of SuperScript II Reverse Transcriptase were added and the mixture was allowed to react at 42° C. for 1 hour to synthesize single-stranded DNA. Subsequently, to the DNA, 1×Second strand buffer, 200 μM dNTP mix, 67 U/ml of DNA ligase, 270 U/ml of DNA polymerase I and 13 U/ml of RNase H were added and the mixture was allowed to react at 16° C. for 2 hours to synthesize double-stranded cDNA. Further, to the cDNA, 67 U/ml of T4 DNA polymerase I was added and the mixture was allowed to react at 16° C. for 5 minutes and then 10 μl of 0.5 M EDTA was added to terminate the reaction.
The obtained cDNA was purified with phenol/chloroform, and a labeling reaction with biotinylated UTP and CTP was carried out by using RNA Transcript Labeling Kit (Enzo Diagnostics) according to the attached operation manual. The reaction product was purified with Rneasy Column and heated in 200 mM Tris/acetate buffer (pH 8.1), 150 mM magnesium acetate, 50 mM potassium acetate at 94° C. for 35 minutes to obtain fragment cRNA.
The fragmented cRNA was hybridized with GeneChip Hu6800 (Affymetrix) in 100 mM MES, 1 M sodium salt, 20 mM EDTA and 0.01% Tween 20 at 45° C. for 16 hours. After the hybridization, the GeneChip was washed and stained according to the protocol EukGE-WS2 attached to Affymetrix Fluidics Station. For the staining, streptavidin-phycoerythrin and biotinylated goat anti-streptavidin antibody were used. The stained GeneChip was scanned by using HP Argon Ion Laser Confocal Scanner (Hewlett Packard) to measure its fluorescence intensity. The fluorescence was measured at 570 nm by using an excitation light at 488 nm.
The quantitative data analyses were all conducted by using GeneChip Software (Affymetrix). To quantify RNA, an average of “differences [(Perfect match hybridization signal)−(Mismatch signal)]” was obtained for each probe family.
E7070, or ER-35748 or ER-68487 was added to a medium for HCT116-C9 at a concentration of 8 μM and culture was performed. The results of analysis of RNA extracted from the cells at 12 hours by using GeneChip were compared with the results of RNA analysis for HCT116-C9 cells obtained in the same manner except for not adding the drug. […]

[1] = HCT116-C9, 8 μM, 12 hours, compared with cells without drug, change of 1.8 times or more counted

Question: Which “enhancement of expression of the genes listed in Table 3” value (HCT116-C9, 8 μM for 12 hours) does the source give for NS(=O)(=O)c1ccc(S(=O)(=O)Nc2cccc3c(Cl)c[nH]c23)cc1 [E7070, N-(3-chloro-7-indolyl)-1,4-benzenedisulfonamide] here?
Answer: ≥ 1.8 times

Question: And the “inhibition of expression of the genes listed in Table 4” value (HCT116-C9, 8 μM for 12 hours)?
Answer: ≥ 1.8 times

Question: And the “expression levels of the genes listed in Table 1” value [1]?
Answer: increased

Question: And the “expression levels of the genes listed in Table 2” value [1]?
Answer: decreased
